# Measured values as given in ChEMBL document CHEMBL4828724 (Eur J Med Chem, 2021).
# Experiments:
# [1] = molecular target: T1, Synaptic vesicular amine transporter (Rattus norvegicus, UniProt Q01827); experiment: Inhibition of [3H]DTBZ binding to VMAT2 in rat brain incubated for 30 mins by liquid scintillation spectrometry analysis; assay type: tissue-based
# [2] = molecular target: Synaptic vesicular amine transporter (Rattus norvegicus) (UniProt Q01827); experiment: Inhibition of [3H]DA uptake at VMAT2 in rat striatal synaptosome at 0.1 uM incubated for 10 mins followed by [3H]DA addition and measured after 20 mins by TopCount scintillation counting method relative to control; assay type: subcellular; details: Striatum, time 30.0 min
# [3] = molecular target: Synaptic vesicular amine transporter (Rattus norvegicus) (UniProt Q01827); experiment: Inhibition of [3H]DA uptake at VMAT2 in rat striatal synaptosome at 1 uM incubated for 10 mins followed by [3H]DA addition and measured after 20 mins by TopCount scintillation counting method relative to control; assay type: subcellular; details: Striatum, time 30.0 min
# [4] = molecular target: Cytochrome P450 2C19 (Homo sapiens, UniProt P33261); experiment: Inhibition of CYP2C19 (unknown origin); assay type: ADME
# [5] = Metabolic stability in mouse liver microsomes assessed as intrinsic clearance at 1 uM in the presence of NADPH measured for 60 mins by LC-MS/MS analysis; assay type: ADME, Microsome; details: read-out: CLH
# [6] = Apparent volume of distribution during terminal phase in Sprague-Dawley rat at 10 umol/kg, ig administered as single dose measured after 12 hrs by LC-MS/MS analysis; assay type: ADME; details: in vivo, po, dose 10 µmol/kg, read-out: Vz/F
# [7] = molecular target: Cytochrome P450 2C9 (Homo sapiens, UniProt P11712); experiment: Inhibition of CYP2C9 (unknown origin); assay type: ADME
# [8] = Cmax in Sprague-Dawley rat at 10 umol/kg, ig administered as single dose measured for 12 hrs by LC-MS/MS analysis; assay type: ADME; design: route […], time 12 hrs, dose 10 µmol/kg; details: in vivo, po
# [9] = Metabolic stability in human liver microsomes assessed as parent compound remaining at 1 uM in the presence of NADPH measured after 60 mins by LC-MS/MS analysis; assay type: ADME, Microsome; details: read-out: Stability
# [10] = molecular target: Cytochrome P450 2D6 (Homo sapiens, UniProt P10635); experiment: Inhibition of CYP2D6 (unknown origin); assay type: ADME
# [11] = tested on: Rattus norvegicus; experiment: Reduction in spontaneous locomotor activity in Sprague-Dawley rat at 3 umol/kg, po measured for 3 hrs; assay type: functional
# [12] = Metabolic stability in mouse liver microsomes assessed as parent compound remaining at 1 uM in the presence of NADPH measured after 60 mins by LC-MS/MS analysis; assay type: ADME, Microsome; details: for remaining at 1 h, 1 µM: liver microsomes, read-out: Stability
# [13] = Drug uptake in Sprague-Dawley rat brain at 5 umol/kg, ig measured after 2 hrs by LC-MS/MS analysis; assay type: ADME, tissue-based; details: in vivo, po, dose 5 µmol/kg
# [14] = Clearance in Sprague-Dawley rat at 10 umol/kg, ig administered as single dose measured for 12 hrs by LC-MS/MS analysis; assay type: ADME; details: in vivo, po, dose 10 µmol/kg
# [15] = molecular target: Cytochrome P450 3A4 (Homo sapiens, UniProt P08684); experiment: Inhibition of CYP3A4 (unknown origin); assay type: ADME
# [16] = Metabolic stability in monkey liver microsomes assessed as parent compound remaining at 1 uM in the presence of NADPH measured after 60 mins by LC-MS/MS analysis; assay type: ADME, Macaca mulatta, Microsome; details: rhesus monkey; for remaining at 1 h, 1 µM: liver microsomes, read-out: Stability
# [17] = Metabolic stability in monkey liver microsomes assessed as intrinsic clearance at 1 uM in the presence of NADPH measured for 60 mins by LC-MS/MS analysis; assay type: ADME, Macaca mulatta, Microsome; details: rhesus monkey, read-out: CLH
# [18] = Tmax in Sprague-Dawley rat at 10 umol/kg, ig administered as single dose measured for 12 hrs by LC-MS/MS analysis; assay type: ADME; details: in vivo, po, dose 10 µmol/kg
# [19] = Metabolic stability in human liver microsomes assessed as intrinsic clearance at 1 uM in the presence of NADPH measured for 60 mins by LC-MS/MS analysis; assay type: ADME, Microsome; details: read-out: CLH
# [20] = Metabolic stability in human liver microsomes assessed as half life at 1 uM in the presence of NADPH measured for 60 mins by LC-MS/MS analysis; assay type: ADME, Microsome
# [21] = molecular target: T2, Cytochrome P450 2B6 (Homo sapiens, UniProt P20813); experiment: Inhibition of CYP2B6 (unknown origin); assay type: ADME
# T2 sequence (P20813 whole entry): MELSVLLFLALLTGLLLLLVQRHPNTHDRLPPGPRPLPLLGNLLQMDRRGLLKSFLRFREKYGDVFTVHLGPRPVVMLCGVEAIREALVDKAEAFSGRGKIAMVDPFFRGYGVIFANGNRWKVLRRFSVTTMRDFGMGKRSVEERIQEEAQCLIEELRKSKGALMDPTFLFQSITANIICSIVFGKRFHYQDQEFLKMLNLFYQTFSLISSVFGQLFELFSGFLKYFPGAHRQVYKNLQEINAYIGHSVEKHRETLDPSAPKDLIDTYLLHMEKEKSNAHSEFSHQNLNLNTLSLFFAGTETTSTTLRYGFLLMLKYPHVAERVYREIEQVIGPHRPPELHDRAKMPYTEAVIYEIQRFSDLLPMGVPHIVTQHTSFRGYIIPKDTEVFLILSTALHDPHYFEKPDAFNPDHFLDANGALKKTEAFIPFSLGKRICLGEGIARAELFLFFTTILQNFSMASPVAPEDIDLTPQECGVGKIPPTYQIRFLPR
# [22] = Half life in Sprague-Dawley rat at 10 umol/kg, ig administered as single dose measured for 12 hrs by LC-MS/MS analysis; assay type: ADME; details: in vivo, po, dose 10 µmol/kg
# [23] = AUC (0 to infinity) in Sprague-Dawley rat at 10 umol/kg, ig administered as single dose by LC-MS/MS analysis; assay type: ADME; design: time infinity, route […], dose 10 µmol/kg; details: in vivo, po
# [24] = Metabolic stability in monkey liver microsomes assessed as half life at 1 uM in the presence of NADPH measured for 60 mins by LC-MS/MS analysis; assay type: ADME, Macaca mulatta, Microsome; details: rhesus monkey
# [25] = tested on: Rattus norvegicus; experiment: Reduction in spontaneous locomotor activity in Sprague-Dawley rat at 15 umol/kg, po measured for 3 hrs; assay type: functional
# [26] = Metabolic stability in mouse liver microsomes assessed as half life at 1 uM in the presence of NADPH measured for 60 mins by LC-MS/MS analysis; assay type: ADME, Microsome
# [27] = molecular target: T1, Synaptic vesicular amine transporter; experiment: Inhibition of [3H]DA uptake at VMAT2 in rat striatal synaptosome incubated for 10 mins followed by [3H]DA addition and measured after 20 mins by TopCount scintillation counting method; assay type: subcellular, Striatum
# T1 sequence (Q01827 whole entry): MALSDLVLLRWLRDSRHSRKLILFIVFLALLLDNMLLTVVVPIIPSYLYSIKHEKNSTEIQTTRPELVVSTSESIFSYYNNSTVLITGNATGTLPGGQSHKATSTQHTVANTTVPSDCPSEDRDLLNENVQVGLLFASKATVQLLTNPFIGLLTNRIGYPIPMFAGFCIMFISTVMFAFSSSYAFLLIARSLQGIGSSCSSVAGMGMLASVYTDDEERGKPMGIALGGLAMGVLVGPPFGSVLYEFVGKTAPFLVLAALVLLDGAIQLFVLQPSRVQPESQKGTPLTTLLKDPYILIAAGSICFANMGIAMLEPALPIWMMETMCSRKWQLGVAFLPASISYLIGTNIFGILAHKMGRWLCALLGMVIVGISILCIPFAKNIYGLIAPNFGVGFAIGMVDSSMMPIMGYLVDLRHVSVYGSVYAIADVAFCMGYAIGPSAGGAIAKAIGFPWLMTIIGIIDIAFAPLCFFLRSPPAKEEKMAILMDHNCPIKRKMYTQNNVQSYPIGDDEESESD
# Sequence of Synaptic vesicular amine transporter (Rattus norvegicus) (Q01827 whole entry): as above
# Sequence of Cytochrome P450 3A4 (P08684 whole entry): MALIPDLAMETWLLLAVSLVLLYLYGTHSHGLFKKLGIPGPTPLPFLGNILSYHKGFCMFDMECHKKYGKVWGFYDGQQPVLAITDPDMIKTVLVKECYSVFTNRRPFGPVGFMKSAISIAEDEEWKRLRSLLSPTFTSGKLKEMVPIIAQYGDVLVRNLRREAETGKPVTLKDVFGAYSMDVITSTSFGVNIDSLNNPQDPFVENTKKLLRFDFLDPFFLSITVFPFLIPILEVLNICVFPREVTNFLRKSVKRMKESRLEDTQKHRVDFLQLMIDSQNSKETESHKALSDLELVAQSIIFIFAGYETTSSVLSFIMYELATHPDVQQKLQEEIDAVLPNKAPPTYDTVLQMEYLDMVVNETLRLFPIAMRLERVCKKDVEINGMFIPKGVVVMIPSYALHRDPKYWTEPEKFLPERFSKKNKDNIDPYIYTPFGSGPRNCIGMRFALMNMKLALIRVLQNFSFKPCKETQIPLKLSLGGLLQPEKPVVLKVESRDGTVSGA
# Sequence of Cytochrome P450 2C19 (P33261 whole entry): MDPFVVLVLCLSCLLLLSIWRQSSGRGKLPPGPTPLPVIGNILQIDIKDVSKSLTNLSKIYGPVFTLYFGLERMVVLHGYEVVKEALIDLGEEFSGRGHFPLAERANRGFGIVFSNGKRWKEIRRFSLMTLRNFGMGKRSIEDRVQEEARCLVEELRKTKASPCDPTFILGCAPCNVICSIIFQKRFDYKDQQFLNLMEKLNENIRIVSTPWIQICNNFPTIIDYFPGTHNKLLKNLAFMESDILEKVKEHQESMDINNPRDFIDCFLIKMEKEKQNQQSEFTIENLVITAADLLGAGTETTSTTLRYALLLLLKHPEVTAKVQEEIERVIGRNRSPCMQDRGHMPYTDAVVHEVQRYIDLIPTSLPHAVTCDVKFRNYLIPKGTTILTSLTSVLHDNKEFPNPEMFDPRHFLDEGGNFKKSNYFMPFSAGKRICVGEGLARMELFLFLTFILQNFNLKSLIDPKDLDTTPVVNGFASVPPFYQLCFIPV
# Sequence of Cytochrome P450 2C9 (P11712 whole entry): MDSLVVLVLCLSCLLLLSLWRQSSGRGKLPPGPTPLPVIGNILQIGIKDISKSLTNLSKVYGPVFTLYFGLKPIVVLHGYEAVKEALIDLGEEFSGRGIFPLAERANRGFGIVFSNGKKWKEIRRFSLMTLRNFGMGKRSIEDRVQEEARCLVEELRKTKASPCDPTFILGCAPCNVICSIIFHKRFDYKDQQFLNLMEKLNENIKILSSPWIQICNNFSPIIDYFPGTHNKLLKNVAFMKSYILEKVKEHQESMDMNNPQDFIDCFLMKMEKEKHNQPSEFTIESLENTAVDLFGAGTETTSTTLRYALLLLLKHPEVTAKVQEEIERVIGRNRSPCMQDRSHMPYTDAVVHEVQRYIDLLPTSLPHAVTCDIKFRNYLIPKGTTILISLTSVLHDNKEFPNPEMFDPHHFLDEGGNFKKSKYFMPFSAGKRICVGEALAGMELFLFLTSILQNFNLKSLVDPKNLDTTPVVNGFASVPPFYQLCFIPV
# Sequence of Cytochrome P450 2D6 (P10635 whole entry): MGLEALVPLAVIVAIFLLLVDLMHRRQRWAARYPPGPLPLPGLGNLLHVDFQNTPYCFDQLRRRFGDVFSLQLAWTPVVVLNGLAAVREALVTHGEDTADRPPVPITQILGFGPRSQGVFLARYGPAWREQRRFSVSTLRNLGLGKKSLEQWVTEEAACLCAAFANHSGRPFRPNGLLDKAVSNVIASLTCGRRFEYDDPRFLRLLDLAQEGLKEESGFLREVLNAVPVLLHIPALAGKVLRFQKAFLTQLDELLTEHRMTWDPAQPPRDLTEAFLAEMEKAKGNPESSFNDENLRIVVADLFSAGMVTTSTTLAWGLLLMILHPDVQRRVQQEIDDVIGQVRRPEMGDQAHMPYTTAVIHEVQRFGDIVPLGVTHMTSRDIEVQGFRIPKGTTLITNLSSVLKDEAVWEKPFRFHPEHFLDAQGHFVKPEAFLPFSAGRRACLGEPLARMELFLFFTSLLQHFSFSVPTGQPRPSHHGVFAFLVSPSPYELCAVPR
structure (smiles),measurement,setting,value
COc1cc2c(cc1OC)C1CC(N)C(CC(C)C)CN1CC2 (stereo unspecified),IC50,[1],102 nM
same,inhibition,[2],72.8%
same,inhibition,[3],87.9%
COc1cc2c(cc1OC)[C@H]1C[C@@H](O)[C@H](CC(C)C)CN1CC2 [DIHYDROTETRABENAZINE],IC50,[4],> 100000 nM
same,CLint scaled at 1 µM,[5],1150 mL/min/kg
same,Vd/F,[6],10.5 L/kg
same,IC50,[7],> 100000 nM
same,Cmax,[8],1210 nM
same,"remaining at 1 h, 1 µM",[9],75.6%
same,IC50,[10],> 100000 nM
same,inhibition in vivo at 3 µmol/kg,[11],48.4%
same,"remaining at 1 h, 1 µM",[12],4.8%
same,Drug uptake,[13],213.5 nmol/kg
same,CL/F,[14],74.5 mL/min/kg
same,IC50,[15],> 100000 nM
same,"remaining at 1 h, 1 µM",[16],29.9%
same,CLint scaled at 1 µM,[17],53.7 mL/min/kg
same,Tmax,[18],22.8 min
same,CLint scaled at 1 µM,[19],20.9 mL/min/kg
same,half-life at 1 µM,[20],120 min
same,IC50,[21],> 100000 nM
same,half-life,[22],96.6 min
same,AUC(0-inf),[23],2.3 µM·h
same,half-life at 1 µM,[24],34.8 min
same,inhibition in vivo at 15 µmol/kg,[25],91.4%
same,half-life at 1 µM,[26]; liver microsomes,4.8 min
CCC1(O)CC2c3cc(OC)c(OC)cc3CCN2CC1CC(C)C (stereo unspecified),IC50,[1],> 500 nM
same,inhibition,[2],33.2%
same,inhibition,[3],81.7%
CCOc1cc2c(cc1OC)C1CC(O)C(CC(C)C)CN1CC2 (stereo unspecified),CLint scaled at 1 µM,[5],283 mL/min/kg
same,inhibition,[2],99.9%
same,"remaining at 1 h, 1 µM",[9],66.8%
same,"remaining at 1 h, 1 µM",[12],9.4%
same,IC50,[27],5.72 nM
same,Stability,"[16]; microsomes, 1 h, 1 µM",23.7%
same,CLint scaled at 1 µM,[17],131 mL/min/kg
same,CLint scaled at 1 µM,[19],14.4 mL/min/kg
same,inhibition,[3],99.9%
COc1cc2c(cc1OC)C1CC(O)(C#N)C(CC(C)C)CN1CC2 (stereo unspecified),IC50,[1],87 nM
same,inhibition,[2],85%
same,IC50,[27],27.9 nM
same,inhibition,[3],93.7%
CCOc1cc2c(cc1OCCCF)C1CC(O)C(CC(C)C)CN1CC2 (stereo unspecified),IC50,[1],> 500 nM
CCCOc1cc2c(cc1OC(C)C)C1CC(O)C(CC(C)C)CN1CC2 (stereo unspecified),IC50,[1],> 500 nM
CCOc1cc2c(cc1OCC1CC1)C1CC(O)C(CC(C)C)CN1CC2 (stereo unspecified),IC50,[1],> 500 nM
CCOc1cc2c(cc1OCCCOC)CCN1CC(CC(C)C)C(O)CC21 (stereo unspecified),IC50,[1],200 nM
COc1cc2c(cc1OCC1CC1)CCN1CC(CC(C)C)C(O)CC21 (stereo unspecified),CLint scaled at 1 µM,[5],522 mL/min/kg
same,IC50,[1],5.99 nM
same,inhibition,[2],96%
same,"remaining at 1 h, 1 µM",[9],74.7%
same,Stability,"[12]; microsomes, 1 h, 1 µM",22.6%
same,IC50,[27],17.8 nM
same,"remaining at 1 h, 1 µM",[16],17.6%
same,CLint scaled at 1 µM,[17],72.4 mL/min/kg
same,CLint scaled at 1 µM,[19],19.4 mL/min/kg
same,half-life at 1 µM,[20],128 min
same,half-life at 1 µM,[24],25.9 min
same,inhibition,[3],99.2%
same,t1/2,"[26]; microsomes, 1 h, 1 µM",10.5 min
CCOc1cc2c(cc1OCCCOC)C1CC(O)C(CC(C)C)CN1CC2 (stereo unspecified),IC50,[1],73.2 nM
CCCOc1cc2c(cc1OC(C)C)CCN1CC(CC(C)C)C(O)CC21 (stereo unspecified),IC50,[1],> 500 nM
